Consider 17 compounds from patent publication US6809064B2, “Synergistic herbicidal compositions comprising herbicides from the benzoylcyclohexanedione group for use in rice crops” (Aventis CropScience GmbH, priority 2001, dated 2004).

SMILES strings stand for the structures. Where two headings read alike, the source gives them in different places.

The subject of one assay is ECHCG. The assay is described as follows: Post-emergence herbicidal action, spray application. It is filed as in vivo, Echinochloa crus galli. As to the method: (§1) The herbicidal efficacy of the active ingredients or active ingredient mixtures was scored visually by comparing the treated variants with untreated control variants. The damage and development of all aerial plant parts was recorded. Scoring was done on a percentage scale (100% action=all plants dead; 50% action=50% of the plants and green plant parts dead; 0% action=no discernible action=like untreated control plot).
(§2) Seeds or root segments of monocotyledonous and dicotyledonous weeds are placed in sandy loam in pots, covered with soil and grown in the greenhouse under good growth conditions (temperature, atmospheric humidity, water supply). Approximately three weeks after planting, the experimental plants are treated with the compositions according to the invention. In the case of spray application, the compositions according to the invention, which are formulated as wettable powders or emulsion concentrates, are sprayed onto the green plant parts in various dosages with an application rate of 600 to 800 l of water per ha (converted). Immediately to a few days after the application, the test containers are flooded with water up to a depth of 30 mm above the soil surface. In the case of submerged application, in contrast, the soil in the closed test container is already covered with paddy water up to a depth of 30 mm at the time of application. Here, the formulated active ingredients are added directly to the paddy water. After the experimental plants have remained in the greenhouse under optimal growth conditions for a further 3 to 4 weeks, the effect of the preparations is scored visually in comparison with untreated controls. The compositions according to the invention also have an outstanding herbicidal action against a broad spectrum of economically important grass weeds and broad-leaved weeds when applied post-emergence. Frequently, effects of the combinations according to the invention are observed which exceed the formal total of the effects when the herbicides are applied individually. When using suitable low dosages, the values observed in the experiments show an effect of the combinations which exceed the expected values calculated using Colby's formula.
(§3) When applying the combinations according to the invention, herbicidal effects are frequently observed on a harmful plant species which exceed the formal total of the effects of the herbicides present when these are applied by themselves. Alternatively, it is observed in some cases that a lower application rate is required for the herbicide combination in order to achieve the same effect on a harmful plant species in comparison with the individual products.
A, B=action of component A or B in percent at a dosage of a and b grams of ai/ha, respectively, and […]

In another assay the test system is SEBEX. The assay is described as above. It is filed as in vivo, Sesbania exaltata. As to the method: as §1
as §2, with “Frequently, effects of the combinations according to the invention are observed which exceed the formal total of the effects when the herbicides are applied individually.” left out, “formula. […]” for “formula.”

The test system of another assay is SCPJU. The assay can be described thus: Post-emergence herbicidal action, submerged application. The settings on record: for pest or weed control at 15 g/ha: dosage 15 g ai/ha. It counts as in vivo, Scirpus juncoides. The procedure: as §1, §2, §3
(§4) A, B=action of component A or B in percent at a dosage of a and b grams of ai/ha, respectively, and
(§5) E=expected value in % at a dosage of a+b grams of ai/ha.
(§6) Examples B.I to B.XVII have been conducted according to method B.2 (post-emergence herbicidal action) as mentioned above, wherein spray application has been applied in case of examples B.I to B.V. Submerged application has been applied in case of examples B.VI bis B.XVII.

The test system of a further assay is SAGPY. The assay is described as above. It counts as in vivo, Sagittaria pygmaea. The procedure:
as §1, §2, §3, §4, §5, §6

The test system of the next assay is ECHOR. The description is as above. It is filed as in vivo. Particulars: Example B.XIV, dosage 18.75 g ai/ha. The procedure: as §1
(§7) Seeds or root segments of monocotyledonous and dicotyledonous weeds are placed in sandy loam in pots, covered with soil and grown in the greenhouse under good growth conditions (temperature, atmospheric humidity, water supply). Approximately three weeks after planting, the experimental plants are treated with the compositions according to the invention. […] After the experimental plants have remained in the greenhouse under optimal growth conditions for a further 3 to 4 weeks, the effect of the preparations is scored visually in comparison with untreated controls. […] When using suitable low dosages, the values observed in the experiments show an effect of the combinations which exceed the expected values calculated using Colby's formula. […]

A further assay deals with CYPSE. The description is as above. The settings on record: Example B.X, dosage 750 g ai/ha. It is filed as in vivo, Cyperus serotinus. The procedure:
as §1, §7

A further assay has as its system CYPES. The assay can be described thus: Post-emergence herbicidal action, spray application. The settings on record: Example B.IV, dosage 20 g ai/ha. It is filed as in vivo. As to the method: as §1, §7
In another assay the test system is CHEAL. The assay is described as above. It counts as in vivo, Chenopodium album. Particulars: Example B.I, dosage 10 g ai/ha. As to the method:
as §1, §7

The mark [1] stands for this setting: Example B.II, dosage 100 g ai/ha.
Where [2] appears, read: Example B.VI, submerged application, dosage 75 g ai/ha.
Setting [3] is: Example B.V, dosage 500 g ai/ha.
[4] abbreviates: Example B.III, dosage 100 g ai/ha.
Setting [5] is: Schoenoplectiella juncoides, read-out: SCPJU found.
[6] abbreviates: Sagittaria pygmaea, read-out: SAGPY found.

For `O=C(O)COc1ccc(Cl)cc1Cl` [Compound B1.1, 2,4-D], the ECHCG found in the assay on ECHCG (setting [1]) amounted to 50%. Moreover, the SEBEX found in the assay with SEBEX (setting [1]) was 45%.

With `CS(=O)(=O)c1ccc(C(=O)C2=C(Sc3ccccc3)C3CCC(C3)C2=O)c(Cl)c1` (stereo not drawn) [Compound B2.1, benzobicyclon], the SCPJU found in the assay on SCPJU (setting [2]) was 30%. Moreover, the SAGPY found in the assay with SAGPY (setting [2]) is reported as 0%.

`CCC1(CC2(c3cccc(Cl)c3)CO2)C(=O)c2ccccc2C1=O` (stereo not drawn) [Compound B10.1, indanofan]: the pest or weed control at 37.5 g/ha in the assay on SCPJU (Schoenoplectiella juncoides, Example B.XIV, submerged application, dosage 37.5 g ai/ha, read-out: SCPJU found) was 20%. In addition, the ECHOR found with ECHOR came to 50%. With `Cc1ccc(NC(=O)NC(C)(C)c2ccccc2)cc1` [Compound B5.2, daimuron], the pest or weed control at 375 g/ha in the assay with SAGPY (Sagittaria pygmaea, Example B.X, submerged application, dosage 375 g ai/ha, read-out: SAGPY found) came out at 0%. For the same compound, the CYPSE found in the assay on CYPSE was determined as 0%. With `Cc1ccc(C(=O)COc2c(C(=O)c3ccc(Cl)c(C)c3Cl)c(C)nn2C)cc1` [Compound B3.1, benzofenap], in the assay with SCPJU (Schoenoplectiella juncoides, Example B.VII, submerged application, dosage 300 g ai/ha, read-out: SCPJU found), the pest or weed control at 300 g/ha was 0%. In the assay with SAGPY (Sagittaria pygmaea, Example B.VII, submerged application, dosage 75 g ai/ha, read-out: SAGPY found), the pest or weed control at 75 g/ha was 0%.

On to `NC1=C(Cl)C(=O)c2ccccc2C1=O` [Compound B14.1, quinoclamine], for which the ECHCG found with ECHCG (setting [3]) stood at 0%. Also, the SEBEX found in the assay on SEBEX (setting [3]) came to 0%. For `CCNc1nc(NC(C)C(C)C)nc(SC)n1` (stereo not drawn) [Compound B8.1, dimethametryn], the ECHCG found in the assay with ECHCG (setting [4]) stood at 25%. Moreover, the SEBEX found with SEBEX (setting [4]) stood at 50%.

Regarding `CO/N=C(/C)c1cccc(Oc2nc(OC)cc(OC)n2)c1C(=O)OC` [Compound B6.3, pyriminobac-methyl], the pest or weed control at 7.5 g/ha with SCPJU (setting [5]) and in the assay on SAGPY (setting [6]) was 0% in each case.

`CCOCOc1ccc(C(=O)Nc2cccc(Cl)c2Cl)cc1` [Compound B9.1, etobenzamide]: in the assay with SCPJU (Example B.XII, submerged application, dosage 375 g ai/ha), the SCPJU found is 0%. Besides, the SAGPY found with SAGPY (Example B.XII, submerged application, dosage 187 g ai/ha) was determined as 0%. Consider `CSC(=O)c1c(C(F)F)nc(C(F)(F)F)c(C(=O)SC)c1CC(C)C` [Compound B5.3, dithiopyr], for which the pest or weed control at 15 g/ha in the assay on SCPJU (Schoenoplectiella juncoides, Example B.XI, submerged application, read-out: SCPJU found) amounted to 0%; with SAGPY (Sagittaria pygmaea, Example B.XI, submerged application, dosage 15 g ai/ha, read-out: SAGPY found), 0%.

Turning to `COc1cc(OC)nc(Sc2cccc3c2C(=O)OC3C)n1` (stereo not drawn) [Compound B12.1, pyriftalide], in the assay on SCPJU (Schoenoplectiella juncoides, Example B.XVI, submerged application, dosage 100 g ai/ha, read-out: SCPJU found), the pest or weed control at 100 g/ha came out at 0%. For the same compound, the pest or weed control at 50 g/ha in the assay on SAGPY (Sagittaria pygmaea, Example B.XVI, submerged application, dosage 50 g ai/ha, read-out: SAGPY found) is 0%. On to `CCN(C(=O)n1nnn(-c2ccccc2Cl)c1=O)C1CCCCC1` [Compound B5.4, fentrazamide], for which, in the assay with SCPJU (Schoenoplectiella juncoides, Example B.XIII, submerged application, dosage 75 g ai/ha, read-out: SCPJU found), the pest or weed control at 75 g/ha was determined as 0%. The pest or weed control at 37.5 g/ha with SAGPY (Sagittaria pygmaea, Example B.XIII, submerged application, dosage 37.5 g ai/ha, read-out: SAGPY found) is 0%. Turning to `CCN(CC)C(=O)n1cnc(S(=O)(=O)c2c(C)cc(C)cc2C)n1` [Compound B5.1, cafenstrole], the pest or weed control at 75 g/ha in the assay with SCPJU (setting [5]) came out at 0%. In addition, the pest or weed control at 150 g/ha in the assay with SAGPY (setting [6]) came to 0%. On to `Cc1ccccc1CO[C@@H]1C[C@@]2(C(C)C)CC[C@]1(C)O2` (racemic) [Compound B7.1, cinmethylin], for which the pest or weed control at 15 g/ha in the assay on SCPJU (Schoenoplectiella juncoides, Example B.IX, submerged application, read-out: SCPJU found) worked out at 0%. In the assay with SAGPY (Sagittaria pygmaea, Example B.IX, submerged application, dosage 30 g ai/ha, read-out: SAGPY found), the pest or weed control at 30 g/ha was 0%.

As for `CCCC(=NOCC(C)Oc1ccc(Cl)cc1)C1=C(O)CC(C2CCCSC2)CC1=O` (stereo not drawn) [Compound B13.1, profoxydim], in the assay with ECHCG (Example B.IV, dosage 20 g ai/ha), the ECHCG found was determined as 30%. Further, in the assay with CYPES, the CYPES found came out at 0%. On to `CC(C)Oc1cc(-n2nc(C(C)(C)C)oc2=O)c(Cl)cc1Cl` [Compound B4.2, oxadiazon], for which the pest or weed control at 22 g/ha with SCPJU (Schoenoplectiella juncoides, Example B.XV, submerged application, dosage 22 g ai/ha, read-out: SCPJU found) stood at 10%. Further, in the assay with SAGPY (Sagittaria pygmaea, Example B.XV, submerged application, dosage 175 g ai/ha, read-out: SAGPY found), the pest or weed control at 175 g/ha was found to be 0%. With `CCOC(=O)c1cnn(C)c1S(=O)(=O)NC(=O)Nc1nc(OC)cc(OC)n1` [Compound B6.2, pyrazosulfuron-ethyl], in the assay with CHEAL, the CHEAL found is reported as 10%.
